The values below are quoted from earlier work in patent US8313936B2, “Nucleic acids and polypeptides involved in the production of cryptophycin” (priority 2006, dated 2012).

Each structure is given as a SMILES string.

For the data set the following is noted: assay not specified; U.S. Publication No. 20020065261.

As to `COc1ccc(C[C@H]2NC(=O)/C=C/C[C@@H]([C@H](C)[C@H]3O[C@@H]3c3ccccc3)OC(=O)[C@H](CC(C)C)OC(=O)[C@H](C)CNC2=O)cc1Cl` [Cryptophycin 1], the “activity relative to other cryptophycins” value is “the most active natural compound”.
